From US12492186B2, “Bicyclic heterocyclic compounds useful as IRAK4 inhibitors” (BRISTOL-MYERS SQUIBB COMPANY, priority 2019, dated 2025)

molecular target: IRAK4 (Homo sapiens (Human), UniProt Q9NWZ3); assay: IRAK4 Inhibition Assay; type: biochemical; settings: ATP 500 μM; IRAK4 0.6 nM; 60 min room temperature; Caliper LABCHIP 3000
Method: The assays were performed in U-bottom 384-well plates. The final assay volume was 30 μL prepared from 15 μL additions of enzyme and substrates (fluoresceinated peptide and ATP) and test compounds in assay buffer (20 mM HEPES pH 7.2, 10 mM MgCl2, 0.015% Brij 35 and 4 mM DTT). The reaction was initiated by the combination of IRAK4 with substrates and test compounds. The reaction mixture was incubated at room temperature for 60 min. and terminated by adding 45 μL of 35 mM EDTA to each sample. The reaction mixture was analyzed on the Caliper LABCHIP® 3000 (Caliper, Hopkinton, MA) by electrophoretic separation of the fluorescent substrate and phosphorylated product. Inhibition data were calculated by comparison to no enzyme control reactions for 100% inhibition and vehicle-only reactions for 0% inhibition. The final concentrations of reagents in the assays are ATP, 500 μM; FL-IPTSPITTTYFFFKKK peptide 1.5 μM; IRAK4, 0.6 nM; and DMSO, 1.6%.

IRAK4, sequence (Q9NWZ3 whole entry, species assumed): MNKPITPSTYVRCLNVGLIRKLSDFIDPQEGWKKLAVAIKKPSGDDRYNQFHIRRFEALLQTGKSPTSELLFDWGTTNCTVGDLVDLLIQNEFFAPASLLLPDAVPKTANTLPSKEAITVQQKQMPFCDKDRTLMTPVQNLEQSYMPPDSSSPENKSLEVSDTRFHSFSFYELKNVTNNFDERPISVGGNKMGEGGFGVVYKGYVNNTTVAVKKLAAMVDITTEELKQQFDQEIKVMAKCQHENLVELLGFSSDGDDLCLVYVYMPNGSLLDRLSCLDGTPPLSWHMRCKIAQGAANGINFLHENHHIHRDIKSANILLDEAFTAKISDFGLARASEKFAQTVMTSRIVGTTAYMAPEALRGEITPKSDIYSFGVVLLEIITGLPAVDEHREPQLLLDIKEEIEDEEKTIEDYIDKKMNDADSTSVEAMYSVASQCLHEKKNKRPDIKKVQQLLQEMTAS

| Structure (SMILES) | IC50 [nM] |
| --- | --- |
| CC(C)Nc1c(C(=O)NCCC2CC2)cnc2ccc(-c3cncc(C#N)c3)nc12 [Example 151, 6-(5-cyanopyridin-3-yl)-N-(2-cyclopropylethyl)-4-(isopropylamino)-1,5-naphthyridine-3-carboxamide] | 1280 |
| CC(O)CNc1c(C(=O)NC[C@@H](F)C(C)(C)O)cnc2ccc(-c3cncs3)cc12 (stereo partly drawn) [Example 32, N—((R)-2-fluoro-3-hydroxy-3-methylbutyl)-4-((2-hydroxypropyl)amino)-6-(thiazol-5-yl)quinoline-3-carboxamide] | 116 |
| CC(C)(O)CCNc1c(C(N)=O)cnc2ccc(-c3cn[nH]c3)cc12 [Example 99, 4-((3-hydroxy-3-methylbutyl)amino)-6-(1H-pyrazol-4-yl)quinoline-3-carboxamide] | 264 |
| CC(C)Nc1c(C(=O)NCCC(C)(C)O)cnc2ccc(-c3cccnc3)nc12 [Example 146, N-(3-hydroxy-3-methylbutyl)-4-(isopropylamino)-6-(pyridin-3-yl)-1,5-naphthyridine-3-carboxamide] | 89.8 |
| CCCc1nc(-c2cnc3ccc(-c4cn[nH]c4)cc3c2NC(C)C)n[nH]1 [Example 125, N-isopropyl-3-(5-propyl-1H-1,2,4-triazol-3-yl)-6-(1H-pyrazol-4-yl)quinolin-4-amine] | 83.6 |
| CC(C)Nc1c(C(=O)NCC2(C)NC(=O)NC2=O)cnc2ccc(-c3cn[nH]c3)cc12 (centres unmarked) [Example 105, 4-(isopropylamino)-N-((4-methyl-2,5-dioxoimidazolidin-4-yl)methyl)-6-(1H-pyrazol-4-yl)quinoline-3-carboxamide] | 338 |
| CC(C)Nc1c(C(=O)NCC(C)(C)CO)cnc2ccc(-c3cn[nH]c3)cc12 [Example 19, N-(3-hydroxy-2,2-dimethylpropyl)-4-(isopropylamino)-6-(1H-pyrazol-4-yl)quinoline-3-carboxamide] | 94.8 |
| CC(C)Nc1c(C(=O)NC2CCN(S(=O)(=O)CCC(F)(F)F)CC2)cnc2ccc(-c3cn[nH]c3)cc12 [Example 89, 4-(isopropylamino)-6-(1H-pyrazol-4-yl)-N-(1-((3,3,3-trifluoropropyl)sulfonyl)piperidin-4-yl)quinoline-3-carboxamide] | 32.8 |
| CC(=O)N[C@H]1CC[C@H](NC(=O)c2cnc3ccc(-c4ccnc(C#N)c4)nc3c2NC(C)C)CC1 [Example 152, N-((1r,4r)-4-acetamidocyclohexyl)-6-(2-cyanopyridin-4-yl)-4-(isopropylamino)-1,5-naphthyridine-3-carboxamide] | 78 |
| CC(C)Nc1c(C(=O)NCCC(C)(C)O)cnc2ccc(-c3cncc(F)c3)cc12 [Example 72, 6-(5-fluoropyridin-3-yl)-N-(3-hydroxy-3-methylbutyl)-4-(isopropylamino)quinoline-3-carboxamide] | 176 |
| CC(C)Nc1c(C(=O)N[C@H]2C[C@H](O)C2)cnc2ccc(-c3cn[nH]c3)cc12 [Example 60, N-((1r,3r)-3-hydroxycyclobutyl)-4-(isopropylamino)-6-(1H-pyrazol-4-yl)quinoline-3-carboxamide] | 38 |
| CCNc1c(C(=O)NCCC(C)(C)O)cnc2ccc(-c3cncs3)cc12 [Example 37, 4-(ethylamino)-N-(3-hydroxy-3-methylbutyl)-6-(thiazol-5-yl)quinoline-3-carboxamide] | 110 |
| CC(C)(O)[C@H](F)CNC(=O)c1cnc2ccc(-c3cncs3)cc2c1Nc1cnn(CC(F)F)c1 [Example 31, (R)-4-((1-(2,2-difluoroethyl)-1H-pyrazol-4-yl)amino)-N-(2-fluoro-3-hydroxy-3-methylbutyl)-6-(thiazol-5-yl)quinoline-3-carboxamide] | 430 |
| Cc1cc2ncc(C(=O)NCCC(C)(C)O)c(NC(C)C)c2cc1-c1cncs1 [Example 61, N-(3-hydroxy-3-methylbutyl)-4-(isopropylamino)-7-methyl-6-(thiazol-5-yl)quinoline-3-carboxamide] | 231 |
| COC(=O)NC1CC(NC(=O)c2cnc3ccc(-c4cn[nH]c4)cc3c2NC2CC(F)(F)C2)C1 (centres unmarked) [Example 58, methyl ((1r,3r)-3-(4-((3,3-difluorocyclobutyl)amino)-6-(1H-pyrazol-4-yl)quinoline-3-carboxamido)cyclobutyl)carbamate] | 29.9 |
| O=C(NCCC1CC1)c1cnc2ccc(-c3cn[nH]c3)cc2c1NCC(F)F [Example 75, N-(2-cyclopropylethyl)-4-((2,2-difluoroethyl)amino)-6-(1H-pyrazol-4-yl)quinoline-3-carboxamide] | 20.1 |
| CC(C)Nc1c(C(=O)N[C@H](C)CCO)cnc2ccc(-c3cn[nH]c3)cc12 [Example 13, (R)—N-(4-hydroxybutan-2-yl)-4-(isopropylamino)-6-(1H-pyrazol-4-yl)quinoline-3-carboxamide] | 88.3 |
| CC(C)Nc1c(C(=O)NCC2(CO)COC2)cnc2ccc(-c3cn[nH]c3)cc12 [Example 20, N-((3-(hydroxymethyl)oxetan-3-yl)methyl)-4-(isopropylamino)-6-(1H-pyrazol-4-yl)quinoline-3-carboxamide] | 48.9 |

| Structure (SMILES) | IC50 [nM] |
| --- | --- |
| CC(C)Nc1c(C(=O)N[C@H]2C[C@@H](O)C2)cnc2ccc(-c3cn[nH]c3)cc12 [Example 39, N-((1s,3s)-3-hydroxycyclobutyl)-4-(isopropylamino)-6-(1H-pyrazol-4-yl)quinoline-3-carboxamide] | 38.6 |
| CC(C)Nc1c(C(=O)NCCc2c[nH]cn2)cnc2ccc(-c3cn[nH]c3)cc12 [Example 102, N-(2-(1H-imidazol-4-yl)ethyl)-4-(isopropylamino)-6-(1H-pyrazol-4-yl)quinoline-3-carboxamide] | 23 |
| CC(C)Nc1c(C(=O)NCCC(C)(C)O)cnc2ccc(-c3ccc(C#N)nc3)cc12 [Example 69, 6-(6-cyanopyridin-3-yl)-N-(3-hydroxy-3-methylbutyl)-4-(isopropylamino)quinoline-3-carboxamide] | 131 |
| CC(C)Nc1c(-c2cn(CCS(C)(=O)=O)nn2)cnc2ccc(-c3cn[nH]c3)cc12 [Example 137, N-isopropyl-3-(1-(2-(methylsulfonyl)ethyl)-1H-1,2,3-triazol-4-yl)-6-(1H-pyrazol-4-yl)quinolin-4-amine] | 38.8 |
| CC(C)Nc1c(C(=O)NCCc2nnn[nH]2)cnc2ccc(-c3cn[nH]c3)cc12 [Example 110, N-(2-(1H-tetrazol-5-yl)ethyl)-4-(isopropylamino)-6-(1H-pyrazol-4-yl)quinoline-3-carboxamide] | 212 |
| CC(O)CCNC(=O)c1cnc2ccc(-c3cn[nH]c3)cc2c1NCC(F)F (centres unmarked) [Example 64, 4-((2,2-difluoroethyl)amino)-N-(3-hydroxybutyl)-6-(1H-pyrazol-4-yl)quinoline-3-carboxamide] | 28 |
| CC(=O)N[C@H]1CC[C@H](NC(=O)c2cnc3ccc(-c4cccnc4)nc3c2NC(C)C)CC1 [Example 153, N-((1r,4r)-4-acetamidocyclohexyl)-4-(isopropylamino)-6-(pyridin-3-yl)-1,5-naphthyridine-3-carboxamide] | 31.6 |
| CC(C)Nc1c(C(=O)NCCc2ncn[nH]2)cnc2ccc(-c3cn[nH]c3)cc12 [Example 104, N-(2-(1H-1,2,4-triazol-5-yl)ethyl)-4-(isopropylamino)-6-(1H-pyrazol-4-yl) quinoline-3-carboxamide] | 35.4 |
| CC(C)Nc1c(C(N)=O)cnc2ccc(-c3cn[nH]c3)cc12 [Example 29, 4-(isopropylamino)-6-(1H-pyrazol-4-yl)quinoline-3-carboxamide] | 21.7 |
| CC(=O)N1CCCC1CCNC(=O)c1cnc2ccc(-c3cn[nH]c3)cc2c1NC(C)C (centres unmarked) [Example 85, N-(2-(1-acetylpyrrolidin-2-yl)ethyl)-4-(isopropylamino)-6-(1H-pyrazol-4-yl) quinoline-3-carboxamide] | 20.7 |
| CNc1c(C(N)=O)cnc2ccc(-c3cn[nH]c3)cc12 [Example 108, 4-(methylamino)-6-(1H-pyrazol-4-yl)quinoline-3-carboxamide] | 554 |
| CC(C)Nc1c(C(=O)NC2CCCOC2)cnc2ccc(-c3cn[nH]c3)cc12 (centres unmarked) [Example 8, 4-(isopropylamino)-6-(1H-pyrazol-4-yl)-N-(tetrahydro-2H-pyran-3-yl)quinoline-3-carboxamide] | 24.1 |
| CC(C)Nc1c(C(=O)NCCC(C)(C)O)cnc2ccc(-c3ccc(F)nc3)cc12 [Example 70, 6-(6-fluoropyridin-3-yl)-N-(3-hydroxy-3-methylbutyl)-4-(isopropylamino)quinoline-3-carboxamide] | 119 |
| CC(C)Nc1c(C(=O)NC[C@@H](F)C(C)(C)O)cnc2ccc(-c3cncc(C#N)c3)cc12 [Example 4, (R)-6-(5-cyanopyridin-3-yl)-N-(2-fluoro-3-hydroxy-3-methylbutyl)-4-(isopropylamino)quinoline-3-carboxamide] | 296 |
| CC(C)Nc1c(C(=O)NCCC(C)(C)O)cnc2ccc(-c3ccncc3)nc12 [Example 145, N-(3-hydroxy-3-methylbutyl)-4-(isopropylamino)-6-(pyridin-4-yl)-1,5-naphthyridine-3-carboxamide] | 24.2 |
| CC(C)Nc1c(C(=O)NC[C@@H](F)C(C)(C)O)cnc2ccc(-c3cncnc3)cc12 [Example 5, (R)—N-(2-fluoro-3-hydroxy-3-methylbutyl)-4-(isopropylamino)-6-(pyrimidin-5-yl)quinoline-3-carboxamide] | 31.7 |
| O=C(NCCC(F)(F)F)c1cnc2ccc(-c3cn[nH]c3)cc2c1NC1CC(F)(F)C1 [Example 55, 4-((3,3-difluorocyclobutyl)amino)-6-(1H-pyrazol-4-yl)-N-(3,3,3-trifluoropropyl)quinoline-3-carboxamide] | 53.1 |
